According to PubChem BioAssay AID330 (DTP/NCI, 2004):
Inconclusive results and toxic doses are left out. Rule for the calls: active = survival T/C of 150% or more; inactive = T/C below 125% in these data.

Test system: P388 leukemia ip, CD2F1 mice, survival T/C
Assay: NCI In Vivo Anticancer Drug Screen. Data for tumor model P388 Leukemia (intraperitoneal) in CD2F1 (CDF1) mice
Settings: endpoint: median survival time, higher = longer survival
Outline: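 Mice carrying the transplanted tumor received test compound or vehicle. Survival was recorded in each group, and the value is the treated-group measurement divided by that of the vehicle-treated control group.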

[1] = dose: 50.0 mg/kg/injection, schedule: Q01DX009 (ip), vehicle: Klucel (hydroxypropylcellulose) (HPC)
[2] = dose: 100.0 mg/kg/injection, schedule: Q01DX009 (ip), vehicle: Klucel (hydroxypropylcellulose) (HPC)
[3] = dose: 200.0 mg/kg/injection, schedule: Q01DX009 (ip), vehicle: Klucel (hydroxypropylcellulose) (HPC)
[4] = dose: 100.0 mg/kg/injection, schedule: Q01DX009 (ip), vehicle: saline with Tween-80

Measured: T/C

O=C(N/N=C/c1cc(Br)cc(Br)c1[O-])c1ccccc1.O=C(N/N=C/c1cc(Br)cc(Br)c1[O-])c1ccccc1.[Fe+2]
inactive: dose: 100.0 mg/kg/injection, schedule: Q01DX001 (ip), vehicle: saline with Tween-80 86 % of control | dose: 200.0 mg/kg/injection, schedule: Q01DX001 (ip), vehicle: saline with Tween-80 86 % of control | dose: 400.0 mg/kg/injection, schedule: Q01DX001 (ip), vehicle: saline with Tween-80 93 % of control

[CH3][Ge]([Cl])([c]1ccccc1)[c]1cccc2ccccc12 (stereo not given)
inactive: dose: 100.0 mg/kg/injection, schedule: Q04DX003 (ip), vehicle: saline 102 % of control | dose: 200.0 mg/kg/injection, schedule: Q04DX003 (ip), vehicle: saline 97 % of control | dose: 400.0 mg/kg/injection, schedule: Q04DX003 (ip), vehicle: saline 101 % of control

CCN(CC)CCNC(=O)C(=O)NCCN(CC)CC
inactive: dose: 50.0 mg/kg/injection, schedule: Q01DX005 (ip), vehicle: saline 97 % of control | dose: 100.0 mg/kg/injection, schedule: Q01DX005 (ip), vehicle: saline 99 % of control

Cc1cc(=O)n(C)c2ccc([N+](=O)[O-])cc12
inactive: [1] 106 % of control | [2] 108 % of control | [3] 108 % of control

Cc1cc(=O)n2[nH]c(-c3ccc(C(C)(C)C)cc3)cc2n1
inactive: dose: 60.0 mg/kg/injection, schedule: Q01DX005 (ip), vehicle: saline with Tween-80 111 % of control | dose: 120.0 mg/kg/injection, schedule: Q01DX005 (ip), vehicle: saline with Tween-80 109 % of control | dose: 240.0 mg/kg/injection, schedule: Q01DX005 (ip), vehicle: saline with Tween-80 93 % of control

COc1ccc(C2=C(Cl)C(=O)N(c3ccccn3)C(=O)C2(Cl)Cl)cc1
inactive: dose: 100.0 mg/kg/injection, schedule: Q04DX003 (ip), vehicle: Klucel (hydroxypropylcellulose) (HPC) 98 % of control | dose: 200.0 mg/kg/injection, schedule: Q04DX003 (ip), vehicle: Klucel (hydroxypropylcellulose) (HPC) 106 % of control | dose: 400.0 mg/kg/injection, schedule: Q04DX003 (ip), vehicle: Klucel (hydroxypropylcellulose) (HPC) 100 % of control

Nc1cccc2c1-c1ccccc1C2=O
inactive: dose: 6.25 mg/kg/injection, schedule: Q01DX005 (ip), vehicle: saline with Tween-80 98 % of control | dose: 12.5 mg/kg/injection, schedule: Q01DX005 (ip), vehicle: saline with Tween-80 98 % of control | dose: 25.0 mg/kg/injection, schedule: Q01DX005 (ip), vehicle: saline with Tween-80 92 % of control | dose: 100.0 mg/kg/injection, schedule: Q01DX005 (ip), vehicle: saline with Tween-80 92 % of control

O=C1c2ccccc2C(=O)N1C(CO)Cc1ccccc1 (stereo not given)
inactive: dose: 50.0 mg/kg/injection, schedule: Q01DX009 (ip), vehicle: saline with Tween-80 100 % of control | [4] 95 % of control | dose: 200.0 mg/kg/injection, schedule: Q01DX009 (ip), vehicle: saline with Tween-80 108 % of control

CCOC(=O)C(C)(/C=N/NS(=O)(=O)c1ccc(C)cc1)c1ccccc1 (stereo not given)
inactive: [1] 106 % of control | [2] 98 % of control | [3] 100 % of control

O=c1c2ccccc2c2ccccc2n1O
inactive: dose: 25.0 mg/kg/injection, schedule: Q04DX003 (ip), vehicle: saline with Tween-80 99 % of control | dose: 50.0 mg/kg/injection, schedule: Q04DX003 (ip), vehicle: saline with Tween-80 99 % of control | dose: 100.0 mg/kg/injection, schedule: Q04DX003 (ip), vehicle: saline with Tween-80 97 % of control | dose: 200.0 mg/kg/injection, schedule: Q04DX003 (ip), vehicle: saline with Tween-80 97 % of control

Clc1nc(Cl)nc(Nc2ccccc2Cl)n1
inactive: dose: 6.25 mg/kg/injection, schedule: Q01DX009 (ip), vehicle: Klucel (hydroxypropylcellulose) (HPC) 96 % of control | dose: 12.5 mg/kg/injection, schedule: Q01DX009 (ip), vehicle: Klucel (hydroxypropylcellulose) (HPC) 99 % of control | dose: 25.0 mg/kg/injection, schedule: Q01DX009 (ip), vehicle: Klucel (hydroxypropylcellulose) (HPC) 96 % of control | [1] 99 % of control

C[N+](C)([O-])Cc1ccccc1C[N+](C)(C)[O-]
inactive: dose: 60.0 mg/kg/injection, schedule: Q01DX005 (ip), vehicle: saline 102 % of control | dose: 120.0 mg/kg/injection, schedule: Q01DX005 (ip), vehicle: saline 110 % of control | dose: 240.0 mg/kg/injection, schedule: Q01DX005 (ip), vehicle: saline 112 % of control

CN1C2=NC(=O)NC(=O)C23OC3c2ccccc21 (stereo not given) (tested in a mixture with another compound)
inactive: dose: 50.0 mg/kg/injection, schedule: Q01DX005 (ip), vehicle: Klucel (hydroxypropylcellulose) (HPC) 102 % of control | dose: 100.0 mg/kg/injection, schedule: Q01DX005 (ip), vehicle: Klucel (hydroxypropylcellulose) (HPC) 103 % of control

CCOC(=O)NNc1nc(-c2ccccc2)nc2nonc12
inactive: dose: 25.0 mg/kg/injection, schedule: Q01DX009 (ip), vehicle: saline with Tween-80 91 % of control | [4] 110 % of control

CC(=O)OC(COS(C)(=O)=O)C(OC(C)=O)C(OC(C)=O)C(COS(C)(=O)=O)OC(C)=O (stereo not given)
inactive: dose: 100.0 mg/kg/injection, schedule: Q01DX001 (ip), vehicle: Klucel (hydroxypropylcellulose) (HPC) 108 % of control | dose: 200.0 mg/kg/injection, schedule: Q01DX001 (ip), vehicle: Klucel (hydroxypropylcellulose) (HPC) 100 % of control | dose: 400.0 mg/kg/injection, schedule: Q01DX001 (ip), vehicle: Klucel (hydroxypropylcellulose) (HPC) 117 % of control
